# Measurements as given in PubChem BioAssay (NCI).
#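 Values below derive from 48-hour exposures of cells grown in 96-well plates, with endpoints linearly interpolated between the two concentrations bracketing the appropriate inhibition level. The concentration for 50% growth inhibition is given as GI50. TGI: total growth inhibition.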
# Key:
# Assay in all cases: inhibition of tumour cell growth, NCI panel, 48 h
# OVCAR-8 ovarian = tested on: OVCAR-8 ovarian
# TK-10 renal = tested on: TK-10 renal
# NCI-H226 lung = tested on: NCI-H226 lung
# M14 melanoma = tested on: M14 melanoma
# SN12C renal = tested on: SN12C renal
# SNB-78 CNS = tested on: SNB-78 CNS
# MALME-3M melanoma = tested on: MALME-3M melanoma
# CAKI-1 renal = tested on: CAKI-1 renal
# SNB-75 CNS = tested on: SNB-75 CNS
# 786-0 renal = tested on: 786-0 renal
# DLD-1 colon = tested on: DLD-1 colon
# DMS 114 small cell lung = tested on: DMS 114 small cell lung
SMILES,TGI (OVCAR-8 ovarian),TGI (TK-10 renal),TGI (NCI-H226 lung),TGI (M14 melanoma),TGI (SN12C renal),TGI (SNB-78 CNS),TGI (MALME-3M melanoma),TGI (CAKI-1 renal),TGI (SNB-75 CNS),TGI (786-0 renal),TGI (DLD-1 colon),TGI (DMS 114 small cell lung),GI50 (SNB-75 CNS)
CCCO/N=[N+](\[O-])N(CC)CC,> 100 µM,> 100 µM,> 100 µM,> 100 µM,> 100 µM,> 100 µM,,,,,,,
S=c1[nH]nc(Cn2c3ccc(Br)cc3c3nc4ccccc4nc32)n1C1CCCCC1,> 67.5 µM,> 95.1 µM,> 76.6 µM,> 100 µM,> 56.6 µM,,72.7 µM,> 100 µM,> 100 µM,54.8 µM,,,
CCCCN1C(=O)CC2[C@@H]3CCc4cc(OC)ccc4C3CC[C@]2(C)C1=O (stereo not given in full),> 10 µM,> 10 µM,> 10 µM,> 10 µM,> 10 µM,,> 10 µM,> 10 µM,> 10 µM,> 10 µM,,,
COc1cc2c3cc1Oc1c(OC)c(OC)cc4c1C(Cc1ccc(O)c(c1)Oc1ccc(cc1)CC3N(C)CC2)CN(C)C4 (stereo not given),31.3 µM,32.2 µM,68.9 µM,15 µM,34.7 µM,,30.9 µM,44.3 µM,29.9 µM,22.9 µM,,,
CC1CCc2sc3nc4n(c(=O)c3c2C1)CC(C)S4 (stereo not given),> 100 µM,98.7 µM,63.8 µM,51.8 µM,53.7 µM,,65.8 µM,> 100 µM,62.4 µM,65.6 µM,,,
COc1cc2[nH]c(=O)c3cc(-c4ccccc4)cc4c(Cl)nc(c1OC)c2c43,98.4 µM,> 70 µM,> 100 µM,> 62.9 µM,> 100 µM,,17.1 µM,71 µM,> 60.3 µM,> 49.2 µM,,,
N#C/C(=C\c1cccc(Br)c1)c1nc2ccccc2c(=O)[nH]1,> 100 µM,> 100 µM,> 100 µM,> 100 µM,> 100 µM,,> 100 µM,> 100 µM,76 µM,> 100 µM,,,
COCC#C[C@@]1(O)CCCCC1CC(OC)OC (stereo not given in full),> 100 µM,> 100 µM,> 100 µM,> 100 µM,> 100 µM,,> 100 µM,> 100 µM,> 100 µM,> 100 µM,,,
CCOc1ccc(NCC2CC/C(=C\C=C\c3ccccc3)C2=O)cc1 (stereo not given),42.9 µM,> 50.7 µM,> 100 µM,29.6 µM,35.4 µM,,57.8 µM,> 40.8 µM,59.9 µM,13.5 µM,,,
CC(=O)OCC(=O)O[C@@H]1[C@H]2[C@@H](OC(=O)c3ccccc3)[C@@H](C)C[C@]2(O)[C@H](OC(C)=O)[C@@]2(C)C[C@]1(OC(C)=O)C[C@H]1C(=O)C(C)(C)[C@@H](OC(C)=O)[C@@H]12,> 25 µM,> 25 µM,> 25 µM,> 25 µM,> 25 µM,,> 25 µM,> 25 µM,> 25 µM,> 25 µM,,,
O=C(Sc1c(-c2ccccc2)c(=O)n(-c2ccccc2)c(=S)n1-c1ccccc1)c1ccco1,> 100 µM,> 100 µM,> 100 µM,> 100 µM,> 100 µM,,> 100 µM,> 100 µM,> 100 µM,> 100 µM,,,
O=C1c2cccnc2S(=O)(=O)N1c1ccc([N+](=O)[O-])cc1,> 100 µM,> 100 µM,> 100 µM,> 100 µM,> 100 µM,,> 100 µM,> 100 µM,> 100 µM,> 100 µM,,,
C[N+]1(CCN=C=NC2CCCCC2)CCOCC1,> 100 µM,> 100 µM,> 100 µM,> 100 µM,> 100 µM,,> 100 µM,> 100 µM,> 100 µM,> 100 µM,,,
O=C(OC12CC3CC(CC(C3)C1)C2)c1ccc(NCc2cc(O)ccc2O)cc1,4.11 µM,1.96 µM,6.2 µM,5.18 µM,9.22 µM,,1.67 µM,0.825 µM,2.68 µM,2.86 µM,,,
O=C(O)C1=NN(c2ccc(S(=O)(=O)O)cc2)C2(C1)C(Cl)C(=O)N2c1nc2ccccc2s1 (stereo not given),38.8 µM,33.2 µM,41.4 µM,30.3 µM,43.7 µM,,38.7 µM,31.5 µM,30.7 µM,32 µM,,,
CCN(CC)c1ccc(NC(=S)NN(C)C)cc1,> 10 µM,> 10 µM,> 10 µM,> 10 µM,> 10 µM,,> 10 µM,> 10 µM,> 10 µM,> 10 µM,,,

SMILES,TGI (OVCAR-8 ovarian),TGI (TK-10 renal),TGI (NCI-H226 lung),TGI (M14 melanoma),TGI (SN12C renal),TGI (SNB-78 CNS),TGI (MALME-3M melanoma),TGI (CAKI-1 renal),TGI (SNB-75 CNS),TGI (786-0 renal),TGI (DLD-1 colon),TGI (DMS 114 small cell lung),GI50 (SNB-75 CNS)
c1c(N2CCOCC2)ssc1=[N+]1CCOCC1,> 100 µM,> 100 µM,> 100 µM,> 100 µM,> 100 µM,> 100 µM,> 100 µM,> 100 µM,> 100 µM,> 100 µM,> 100 µM,> 100 µM,
CC(=O)OC1CC2(O)C(CCC3(C)C(c4ccc(=O)oc4)CCC32O)C2(C)C1=CC(O)C1OC12 (stereo not given),0.258 µM,,0.643 µM,,0.882 µM,0.279 µM,0.13 µM,0.0968 µM,0.3 µM,,0.179 µM,0.0335 µM,
C=C1C[C@@H]2CC[C@@]34C[C@H]5O[C@H]6[C@@H](O3)[C@H]3O[C@H](CC[C@@H]3O[C@H]6[C@H]5O4)CC(=O)C[C@@H]3[C@@H](OC)[C@@H](C[C@H](O)CN)O[C@H]3C[C@H]3O[C@@H](CC[C@@H]1O2)C[C@@H](C)C3=C,0.167 µM,> 1 µM,0.00433 µM,0.0307 µM,> 1 µM,,> 1 µM,0.366 µM,> 1 µM,> 1 µM,,,0.00046 µM
Cc1ccc2c(c1C)CC1(Cc3c(C)ccc(C)c3C1=O)C2=O (stereo not given),> 100 µM,> 100 µM,> 100 µM,> 100 µM,> 100 µM,,> 100 µM,> 100 µM,> 100 µM,> 100 µM,,,
N#Cc1nc(C2CCC(=O)O2)oc1N (stereo not given),> 100 µM,> 100 µM,> 100 µM,> 100 µM,> 100 µM,,> 100 µM,> 100 µM,> 100 µM,> 100 µM,,,
O=c1[nH]c(=O)n(C2CC(O)C(CO)O2)cc1OC/C=C/Cc1ccccc1 (stereo not given),> 100 µM,> 100 µM,> 100 µM,> 100 µM,> 100 µM,,> 100 µM,> 100 µM,> 100 µM,> 100 µM,,,
CC1(C)OC[C@@H](C[C@H](O)COCc2ccccc2)O1,> 100 µM,> 100 µM,> 100 µM,> 100 µM,> 100 µM,,> 100 µM,> 100 µM,> 100 µM,> 100 µM,,,
O=C1CS/C(=N/N=C/c2cn(Cc3ccc(Cl)cc3Cl)c3ccccc23)N1,30.6 µM,> 100 µM,> 100 µM,> 100 µM,70.9 µM,,> 100 µM,> 100 µM,54.4 µM,53.2 µM,,,
N#Cc1ccc(-c2nc(C#N)c(N)o2)cc1,> 10 µM,> 10 µM,> 10 µM,> 10 µM,> 10 µM,,> 10 µM,> 10 µM,> 10 µM,> 10 µM,,,
COc1ccc(OC)c(NC(=O)C(=O)C(C(=O)c2ccccc2F)C2OC(=O)c3ccccc32)c1 (stereo not given),> 100 µM,> 100 µM,54.5 µM,> 100 µM,> 100 µM,> 100 µM,,> 100 µM,> 100 µM,,> 100 µM,> 100 µM,
COc1cc2c3c(cc(Cl)nc3c1OC)C(=O)C(=O)N2,43.9 µM,33.4 µM,41.5 µM,29.3 µM,21 µM,,3.82 µM,28.6 µM,29.4 µM,13.4 µM,,,
O=C(/C=C\Nc1ccccc1O)C(F)(F)F,> 100 µM,> 100 µM,> 100 µM,> 100 µM,> 100 µM,,91.3 µM,> 100 µM,> 100 µM,> 100 µM,,,
O=[N+]([O-])/C(Cl)=C(/C(Cl)=C(Cl)Cl)N1CCCCC1,22.2 µM,35.8 µM,34.1 µM,23.3 µM,27.4 µM,,11.6 µM,24.9 µM,56 µM,23.4 µM,,,
Clc1cc(C(c2cc(Cl)sc2Cl)c2cc(Cl)sc2Cl)c(Cl)s1,> 100 µM,> 100 µM,> 100 µM,> 100 µM,> 100 µM,,> 100 µM,> 100 µM,> 100 µM,> 100 µM,,,
CCOc1snc(C(Cl)(Cl)Cl)c1Cl,94.4 µM,> 100 µM,32.5 µM,> 100 µM,89.7 µM,,80.2 µM,83.7 µM,54.9 µM,> 100 µM,,,
O=c1ccn(-c2ccccn2)c(=O)n1-c1ccccn1,> 100 µM,> 100 µM,> 100 µM,> 100 µM,> 100 µM,,> 100 µM,> 100 µM,> 100 µM,> 100 µM,,,
